Experimental data from patent US20260242350A1, “POLYCYCLIC THYROID HORMONE BETA RECEPTOR AGONIST AND USE THEREOF” (CASCADE PHARMACEUTICALS, INC., priority 2023, published 2026).

What was measured:
[1] = target: T1, THRβ (pGAL4-THRβ-LBD) (Homo sapiens, UniProt P10828); experiment: Reporter gene (Dual-Glo luciferase) agonist activity assay in HEK293T cells, THRβ; assay type: cell-based; conditions: ratio of EC50 THRα/THRβ
T1 construct: expressed in transfected cells; host or cells: HEK293T
T1 sequence (P10828 217-461): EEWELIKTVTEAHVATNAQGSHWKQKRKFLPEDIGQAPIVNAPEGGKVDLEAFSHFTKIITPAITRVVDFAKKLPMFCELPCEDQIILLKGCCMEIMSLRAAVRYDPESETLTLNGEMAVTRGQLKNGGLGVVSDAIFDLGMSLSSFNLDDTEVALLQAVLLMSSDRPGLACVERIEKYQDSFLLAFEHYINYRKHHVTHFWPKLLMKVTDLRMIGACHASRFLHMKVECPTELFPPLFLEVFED
Text: Experimental Example 2: Detection of Agonist Activities of Compounds Against THRα and THRβ Based on Reporter Gene Activity Assay Method
1.1 Construction and Preparation of Plasmids pGAL4-THR-LBD and pG5-Luc
The pGAL4-THRα-LBD and pGAL4-THRβ-LBD plasmids used in the reporter gene assay system were constructed by a conventional molecular cloning method comprising the following main steps: the cDNA sequences of THRα (NM_003250) and THRβ(NM_000461) corresponding to the amino acid sequences of THRα (163-407AA) and THRβ(217-461AA) were inserted into the BamHI and NotI enzyme digestion sites of the pGAL4 vector by the PCR technique respectively to obtain the pGAL4-THRα-LBD and pGAL4-THRβ-LBD plasmids; the pG5-Luc (#E249A) and pRL-TK (#E2241) plasmids were purchased from Promega; the plasmids were transfected into the E. coli DH5a by the CaCl2 method, and after further culture and amplification, the plasmids were purified by Plasmid Extraction Kits (TIANGEN, #D107) to obtain the corresponding plasmid DNAs.
1.2 Co-Transfection of Plasmids into HEK293T Cells and Treatment with Compounds
The HEK293T cells were inoculated into a 96-well plate at a density of 1×10^4/well the day before plasmid transfection. Cell transfection was conducted according to the instructions of the transfection reagent FuGENE® HD (Promega, #E2311). The main steps were as follows: taking one well as an example here, the plasmids pGAL4-THRα-LBD or pGAL4-THRβ-LBD, pG5-Luc, and pRL-TK were added in the proportions of 20 ng, 50 ng, and 5 ng to 10 μL of Opti-MEM™ I medium (Gibco, #11058021) and mixed well; subsequently, 0.25 μL of FuGENE® HD was added, mixed well, and then left at room temperature for 5 min; afterwards, […] was added to the cell wells containing 100 μL of culture medium. After cell co-transfection for 6 h, the compound was diluted in a 3-fold gradient with dimethyl sulfoxide at the highest concentration of 1 μM. The compound was added to the cell culture medium at a total of 10 concentrations for treatment for 24 h. There were a total of two duplicate wells for each concentration. Triiodothyronine (T3) was used as the positive control.
1.3 Dual-Glo Luciferase Assay
After the cells were treated with the compound for 24 h, the cells were assayed according to the instructions of Dual-Glo® Luciferase Assay System (Promega, #E2940). The main steps were as follows: 50 μL of culture medium was aspirated from each well and discarded, and then 50 μL of Dual-Glo® Luciferase reagent was added and oscillated at room temperature for 10 min; 80 μL of lysis reaction solution was measured into a white opaque optiPlate-96-well plate, and the luminescence signal value (Firefly-Luc) of the Firefly luciferase was detected using an MD i3x multi-mode microplate reader; 40 μL of Dual-Glo® Stop & Glo® reagent was then added, and oscillated at room temperature for 10 min; the luminescence signal value (Renilla-Luc) of the Renilla luciferase was then detected using an MD i3x multi-mode microplate reader. The Firefly-Luc/Renilla-Luc ratio was used as the activation activity of the compound against THR, and was normalized against the ratio in the vehicle DMSO group; the dose-response curve was fitted with four parameters using the GraphPad Prism6.0 software, and the EC50 value was calculated.

[2] = target: T2, THRα LBD (His-GST-dLBT-THRα LBD) (Homo sapiens, UniProt P10827); experiment: THR-FRET (time-resolved fluorescence resonance energy transfer) agonist activity assay, THRα; assay type: biochemical; conditions: 24 h at room temperature
T2 construct: made in house; host or cells: E. coli BL21 (DE3)
T2 sequence (P10827 163-407 isoform P10827-2): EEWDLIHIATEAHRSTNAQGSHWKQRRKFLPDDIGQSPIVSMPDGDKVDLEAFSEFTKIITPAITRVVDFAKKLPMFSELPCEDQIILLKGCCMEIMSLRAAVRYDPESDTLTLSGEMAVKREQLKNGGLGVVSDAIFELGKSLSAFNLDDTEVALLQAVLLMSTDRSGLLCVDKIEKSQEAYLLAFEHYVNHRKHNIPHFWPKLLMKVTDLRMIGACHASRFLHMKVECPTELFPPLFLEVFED
Text: (§1) Experimental Example 1: Detection of Agonist Activities of Compounds Against THRα/β Based on Time-Resolved Fluorescence Resonance Energy Transfer (THR-FRET)
(§2) 1. Construction of THRα/β Overexpression Vectors
(§3) By visiting NCBI, the THRα/β LBD domain sequences were found. The pET21-His-GST-dLBT-THRα LBD and pET21-His-GST-dLBT-THRβLBD overexpression vectors were constructed by the fusion method, and sequenced to confirm the accuracy of the sequences.
(§4) 2. Prokaryotic Expression of Recombinant Proteins in E. coli
(§5) The THRα LBD and THRβLBD overexpression vectors confirmed by sequencing were transfected into E. coli cells BL21 (DE3), and spread on an ampicillin-resistant agar plate. Monoclones were picked out and amplified in an LB medium, and transferred into 1 L LB at a ratio of 1:100 for large-scale culture. When the OD value was at 0.8 to 1.2, 0.5 mM isopropyl-beta-D-thiogalactopyranoside (IPTG) was added, and induced overnight at 18° C. The bacteria were harvested, disrupted, and purified via the GST column and the molecular sieve to obtain two proteins His-GST-dLBT-THRα LBD and His-GST-dLBT-THRβLBD.
(§6) 3. Preparation of Compounds and Formulation of Reaction System
(§7) The proteins were taken out from a refrigerator at −80° C. The protein s with the GST-tagged THRα/p LBD domain and the Eu-labelled GST antibodies were thawed slowly on ice, and an assay buffer containing a final concentration of 5 mM dithiothreitol (DTT) was formulated.
(§8) 3.1 Preparation of Compounds
(§9) The starting concentration of the compound was 10 μM (in DMSO). The compound (100 μM in DMSO) was subjected to 3-fold isogradient dilution with DMSO to obtain a total of 11 isogradient concentrations. Subsequently, the above compounds at the isogradient concentration were further subjected to 50-fold dilution with an assay buffer containing 5 mM DTT.
(§10) 3.2 Formulation of THR-FRET Reaction System
(§11) The final concentrations of all components were calculated based on a system with a final volume of 20 µL per well. To […] of assay buffer containing 5 mM DTT, the GST-tagged THRα/β proteins, the SRC2 ([…]) polypeptide, XL665 (Cisobio, #610SAXLB), and the Eu-labeled GST antibody were added, and the final concentrations were 2 nM, 200 nM, 0.05 nM, and 7.6 nM respectively to formulate 18 μL of reaction mixture of the proteins, polypeptide, and antibody per well.
(§12) 18 μL of reaction mixture and 2 μL of diluted compound were added into an optiplate-384-well plate, and reacted at room temperature for 24 h.
(§13) The plate was read using an MD i3x multi-mode microplate reader with the excitation and emission wavelengths of 340 nm and 665 nm, respectively. The intensity of light at a wavelength of 616 nm generated by europium excited by 340 nm wavelength light from the MD i3x multi-mode microplate reader was used as the background. According to the different activation degrees of different compounds against THRα and THRβ, the intensity of the emission light at a wavelength of 665 nm generated by exciting XL665 with the exciting light at a wavelength of 616 nm was varied. The intensity ratio between these two light wavelengths (665 nm, 616 nm) was used as the activation activity of the compound against THRα or THRβ, and was normalized against the ratio in the vehicle DMSO group. The dose-response curve was fitted with four parameters using the GraphPad Prism 6.0 software, and the EC50 value was calculated.

[3] = target: T3, THRβ LBD (His-GST-dLBT-THRβLBD) (Homo sapiens, UniProt P10828); experiment: THR-FRET (time-resolved fluorescence resonance energy transfer) agonist activity assay, THRβ; assay type: biochemical; conditions: for EC50: 24 h at room temperature; for Selectivity (THRα/THRβ): ratio of EC50 THRα/THRβ
T3 construct: made in house; host or cells: E. coli BL21 (DE3)
T3 sequence (P10828 217-461 limits assumed): T1 sequence (P10828 217-461)
Text: as §1, §2, §3, §4, §5, §6, §7, §8, §9, §10, §11, §12, §13

| Structure (SMILES) | EC50 [2] [nM] | EC50 [3] [nM] | Selectivity (THRα/THRβ) [3] | Selectivity (THRα/THRβ) [1] |
| --- | --- | --- | --- | --- |
| COC(=O)c1cc2c(=O)ccn(Cc3c(Cl)cc(-n4ncc(=O)[nH]c4=O)cc3Cl)c2cc1OC [Compound 27] |  |  |  | † (5 ≥ THRα/β) |
| Cc1cccc2c1c(=O)ccn2Cc1c(Cl)cc(-n2nc(C(F)F)c(=O)[nH]c2=O)cc1Cl [Compound 47] | 100 to 1000 | < 50 | †† (10 > THRα/β > 1) | † (5 ≥ THRα/β) |
| Cc1nn(-c2cc(Cl)c(Cn3ccc(=O)c4c(C)cccc43)c(Br)c2)c(=O)[nH]c1=O [Compound 46] | 50 to 100 | < 50 | †† (10 > THRα/β > 1) | † (5 ≥ THRα/β) |
| Cc1cccc2c1c(=O)ccn2Cc1c(Br)cc(-n2nc(C(F)F)c(=O)[nH]c2=O)cc1Br [Compound 49] | 50 to 100 | 50 to 100 | †† (10 > THRα/β > 1) | † (5 ≥ THRα/β) |
| Cc1nn(-c2cc(Cl)c(Cn3ccc(=O)c4c(C)cccc43)c(Cl)c2)c(=O)[nH]c1=O [Compound 44] | 100 to 1000 | 50 to 100 | †† (10 > THRα/β > 1) | † (5 ≥ THRα/β) |
| O=c1cnn(-c2cc(Cl)c(Cn3ccc(=O)c4cc(Cl)ccc43)c(Cl)c2)c(=O)[nH]1 [Compound 6] |  |  |  | † (5 ≥ THRα/β) |
| N#Cc1nn(-c2cc(Cl)c(Cn3ccc(=O)c4ccccc43)c(Cl)c2)c(=O)[nH]c1=O [Compound 31] | 1000 to 10000 | 100 to 1000 | †† (10 > THRα/β > 1) |  |
| O=c1[nH]c(CNc2cc(Cl)c(Cn3ccc(=O)c4ccccc43)c(Cl)c2)no1 [Compound 64] | 100 to 1000 | 50 to 100 | †† (10 > THRα/β > 1) |  |
| CCOC(=O)c1cn(Cc2c(Cl)cc(-n3ncc(=O)[nH]c3=O)cc2Cl)c2ccccc2c1=O [Compound 21] |  |  |  | † (5 ≥ THRα/β) |
| Cn1nc(-c2cc(Cl)c(Cn3ccc(=O)c4ccccc43)c(Cl)c2)c(=O)[nH]c1=O [Compound 51] |  |  |  | † (5 ≥ THRα/β) |
| O=c1cnn(-c2cc(Cl)c(Cn3ccc(=O)c4ccc(Cl)cc43)c(Cl)c2)c(=O)[nH]1 [Compound 12] |  |  |  | † (5 ≥ THRα/β) |
| O=c1cnn(-c2cc(Cl)c(Cn3ccc(=O)c4cc(Br)ccc43)c(Cl)c2)c(=O)[nH]1 [Compound 7] |  |  |  | † (5 ≥ THRα/β) |
| O=c1cnn(-c2cc(Cl)c(Cn3ccc(=O)c4cc(F)ccc43)c(Cl)c2)c(=O)[nH]1 [Compound 5] |  |  |  | † (5 ≥ THRα/β) |
| O=c1[nH]c(COc2cc(Cl)c(Cn3ccc(=O)c4ccccc43)c(Cl)c2)no1 [Compound 58] | 100 to 1000 | 100 to 1000 | †† (10 > THRα/β > 1) |  |
| O=C(O)CNc1cc(Cl)c(Cn2ccc(=O)c3ccccc32)c(Cl)c1 [Compound 60] | 100 to 1000 | 100 to 1000 | †† (10 > THRα/β > 1) |  |
| O=c1cnn(-c2cc(Cl)c(Cn3ccc(=O)c4cc(OC(F)(F)F)ccc43)c(Cl)c2)c(=O)[nH]1 [Compound 8] |  |  |  | † (5 ≥ THRα/β) |

Continued, in another order:

| EC50 [2] [nM] | EC50 [3] [nM] | Selectivity (THRα/THRβ) [3] | Structure (SMILES) | Selectivity (THRα/THRβ) [1] |
| --- | --- | --- | --- | --- |
| 1000 to 10000 | 100 to 1000 | †† (10 > THRα/β > 1) | O=c1[nH]nc(CNc2cc(Cl)c(Cn3ccc(=O)c4ccccc43)c(Cl)c2)o1 [Compound 63] |  |
| 100 to 1000 | 50 to 100 | †† (10 > THRα/β > 1) | O=C(O)C(=O)Nc1cc(Cl)c(Cn2ccc(=O)c3ccccc32)c(Cl)c1 [Compound 62] |  |
| 1000 to 10000 | 100 to 1000 | ††† (THRα/β ≥ 10) | O=C(Nc1cc(Cl)c(Cn2ccc(=O)c3ccccc32)c(Cl)c1)c1noc(=O)[nH]1 [Compound 66] |  |
| 1000 to 10000 | 100 to 1000 | †† (10 > THRα/β > 1) | O=C(O)CC(=O)Nc1cc(Cl)c(Cn2ccc(=O)c3ccccc32)c(Cl)c1 [Compound 61] |  |
| 100 to 1000 | 100 to 1000 | †† (10 > THRα/β > 1) | O=c1ccn(Cc2c(Cl)cc(OCc3nnn[nH]3)cc2Cl)c2ccccc12 [Compound 59] |  |
| 100 to 1000 | < 50 | ††† (THRα/β ≥ 10) | O=c1ccn(Cc2c(Cl)cc(NCc3nnn[nH]3)cc2Cl)c2ccccc12 [Compound 65] |  |
| 100 to 1000 | 50 to 100 | †† (10 > THRα/β > 1) | C#Cc1nn(-c2cc(Cl)c(Cn3ccc(=O)c4ccccc43)c(Cl)c2)c(=O)[nH]c1=O [Compound 40] |  |
